# In PubChem BioAssay (NCI):
# Values joined by “and” are separate entries in the source; they are usually repeats but may differ in a detail not shown here. Equal entries are not always repeated.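 The compound was tested at five concentrations on cells cultured in 96-well plates, with a 48-hour exposure period. GI50 = concentration required for 50% inhibition of growth. TGI denotes the concentration required for complete inhibition of growth.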
# Key:
# Assay in all cases: NCI tumour cell line growth inhibition, 48 h
# [1] = system: SF-295 CNS
# [2] = system: K-562 leukemia
# [3] = system: DU-145 prostate
# [4] = system: TK-10 renal
# [5] = system: ACHN renal
# [6] = system: A549 NSCLC
# [7] = system: HT29 colon
# [8] = system: 786-0 renal
# [9] = system: M14 melanoma
# [10] = system: OVCAR-5 ovarian
# [11] = system: RPMI-8226 leukemia
# [12] = system: A498 renal
# [13] = system: SK-MEL-5 melanoma
# [14] = system: OVCAR-4 ovarian
# [15] = system: IGROV1 ovarian
# [16] = system: SF-268 CNS
# [17] = system: T-47D breast
# [18] = system: SNB-75 CNS
# [19] = system: CCRF-CEM leukemia
# [20] = system: NCI-H226 lung
# [21] = system: KM12 colon
# [22] = system: U251 CNS
# [23] = system: CAKI-1 renal
# [24] = system: UACC-257 melanoma
# [25] = system: NCI/ADR-RES ovarian
# [26] = system: RXF 393 renal
# [27] = system: HOP-92 NSCLC
# [28] = system: MDA-MB-435
# [29] = system: HS 578T breast
# [30] = system: PC-3 prostate
# [31] = system: BT-549 breast
# [32] = system: SK-OV-3 ovarian
# [33] = system: UO-31 renal
# [34] = system: COLO 205 colon
# [35] = system: NCI-H522 lung
# [36] = system: HCT-116 colon
# [37] = system: SN12C renal
# [38] = system: OVCAR-3 ovarian
# [39] = system: SR leukemia
# [40] = system: SW-620 colon
# [41] = system: OVCAR-8 ovarian
# [42] = system: UACC-62 melanoma
# [43] = system: HCT-15 colon
# [44] = system: SK-MEL-28 melanoma
# [45] = system: MOLT-4 leukemia
# [46] = system: MDA-N
# [47] = system: HOP-62 NSCLC
# [48] = system: NCI-H23 lung
# [49] = system: HCC-2998 colon
# [50] = system: MCF7 breast
# [51] = system: NCI-H460 lung
# [52] = system: SK-MEL-2 melanoma
# [53] = system: MALME-3M melanoma
# [54] = system: SF-539 CNS
# [55] = system: MDA-MB-231 breast
# [56] = system: EKVX NSCLC
# [57] = system: HL-60(TB) leukemia
# [58] = system: LOX IMVI melanoma
# [59] = system: SNB-19 CNS
structure (smiles),measurement,setting,value
CC(=O)N1N=C(c2ccc3ccccc3c2O)CC1c1ccc(Cl)cc1Cl (stereo not given),TGI,[1],> 100 µM
same,TGI,[2],> 100 µM
same,TGI,[3],> 100 µM
same,TGI,[4],> 100 µM
same,TGI,[5],> 100 µM
same,TGI,[6],> 100 µM
same,TGI,[7],> 100 µM
same,TGI,[8],> 100 µM
same,TGI,[9],> 100 µM
same,TGI,[10],> 100 µM
same,TGI,[11],> 100 µM
same,TGI,[12],> 100 µM
same,TGI,[13],> 100 µM
same,TGI,[14],> 100 µM
same,TGI,[15],> 100 µM
same,TGI,[16],93.1 µM
same,TGI,[17],> 100 µM
same,TGI,[18],> 100 µM
same,TGI,[19],> 100 µM
same,TGI,[20],> 100 µM
same,TGI,[21],> 100 µM
same,TGI,[22],> 100 µM
same,TGI,[23],> 100 µM
same,TGI,[24],> 100 µM
same,TGI,[25],> 100 µM
same,TGI,[26],> 100 µM
same,TGI,[27],> 100 µM
same,TGI,[28],> 100 µM
same,TGI,[29],> 100 µM
same,TGI,[30],> 100 µM
same,TGI,[31],> 100 µM
same,TGI,[32],> 100 µM
same,TGI,[33],> 100 µM
same,TGI,[34],> 100 µM
same,TGI,[35],> 100 µM
same,TGI,[36],> 100 µM
same,TGI,[37],> 100 µM
same,TGI,[38],> 100 µM
same,TGI,[39],> 100 µM
same,TGI,[40],> 100 µM
same,TGI,[41],> 100 µM
same,TGI,[42],> 100 µM
same,TGI,[43],> 100 µM
same,TGI,[44],> 100 µM
same,TGI,[45],> 100 µM
same,TGI,[46],> 100 µM
same,TGI,[47],> 100 µM
same,TGI,[48],> 100 µM
same,TGI,[49],> 100 µM
same,TGI,[50],> 100 µM
same,TGI,[51],> 100 µM
same,TGI,[52],> 100 µM
same,TGI,[53],> 100 µM
same,TGI,[54],50.6 µM
same,TGI,[55],> 100 µM
O=C1CC(NC2CC(=O)c3c(Br)sc(Br)c32)c2c(Br)sc(Br)c21 (stereo not given),TGI,[1],27.8 µM
same,TGI,[2],> 21.5 µM
same,TGI,[3],16.5 µM
same,TGI,[56],22.7 µM
same,TGI,[4],6.47 µM
same,TGI,[5],5.22 µM
same,TGI,[6],38.9 µM
same,TGI,[7],8.91 µM
same,TGI,[8],2.9 µM
same,TGI,[9],11.9 µM
same,TGI,[10],41.4 µM
same,TGI,[57],7.65 µM
same,TGI,[12],32.6 µM
same,TGI,[13],18.2 µM
same,TGI,[14],> 78.1 µM
same,TGI,[15],8.43 µM
same,TGI,[16],26.2 µM
same,TGI,[17],8.25 µM
same,TGI,[18],31.4 µM
same,TGI,[19],3.17 µM
same,TGI,[20],34.1 µM
same,TGI,[21],6.03 µM
same,TGI,[22],3.36 µM
same,TGI,[58],4.68 µM
same,TGI,[23],9.72 µM
same,TGI,[24],4.93 µM
same,TGI,[25],> 86.8 µM
same,TGI,[59],28.4 µM
same,TGI,[26],8.86 µM
same,TGI,[27],21.5 µM
same,TGI,[28],11.2 µM
same,TGI,[29],33.2 µM
same,TGI,[30],7.52 µM
same,TGI,[31],38.9 µM
same,TGI,[32],32.6 µM
same,TGI,[33],4.46 µM
same,TGI,[34],8.77 µM
same,TGI,[35],3.69 µM
same,TGI,[36],6.46 µM
same,TGI,[37],3.42 µM
same,TGI,[38],> 100 µM
same,TGI,[40],4.95 µM
same,TGI,[41],10.3 µM
same,TGI,[42],24.2 µM
same,TGI,[43],9.2 µM
same,TGI,[44],> 55.4 µM
same,TGI,[45],> 100 µM
same,TGI,[46],5.82 µM
same,TGI,[47],12.2 µM
same,TGI,[48],28.3 µM
same,TGI,[49],30.8 µM
same,TGI,[50],8.44 µM
same,TGI,[51],38.2 µM
same,TGI,[52],14.5 µM
same,TGI,[53],5.62 µM
same,TGI,[55],10.3 µM
COc1cc(CC(C)N[C@@H](C)c2ccccc2)cc(OC)c1 (stereo not given in full),TGI,[1],21.5 µM and > 100 µM
same,GI50,[3],12.6 µM and > 100 µM
same,TGI,[3],25.2 µM and > 100 µM
same,GI50,[56],12.2 µM and > 100 µM
same,TGI,[56],26.4 µM and > 100 µM
same,GI50,[4],12.2 µM and 53.8 µM
same,TGI,[4],24.7 µM and > 100 µM
same,TGI,[5],21.1 µM and > 100 µM
same,GI50,[6],13 µM and > 100 µM
same,TGI,[6],27.1 µM and > 100 µM
same,TGI,[7],13.1 µM and > 100 µM
same,TGI,[8],17.3 µM and > 100 µM
same,TGI,[9],21.9 µM and > 100 µM
same,GI50,[10],12.9 µM and > 100 µM
same,TGI,[10],26 µM and > 100 µM
same,TGI,[57],10.7 µM and > 100 µM
same,TGI,[11],11.6 µM and > 100 µM
same,GI50,[12],7.9 µM and 41.8 µM
same,TGI,[12],21 µM and > 100 µM
same,TGI,[14],22.4 µM and > 100 µM
same,GI50,[15],10.6 µM and > 100 µM
same,TGI,[15],24.3 µM and > 100 µM
same,GI50,[16],12.3 µM and > 100 µM
same,TGI,[16],25.8 µM and > 100 µM
same,TGI,[17],18.3 µM and > 100 µM
same,GI50,[18],2.9 µM and 24.7 µM
same,TGI,[18],12.9 µM and > 100 µM
same,TGI,[19],24 µM and > 100 µM
same,GI50,[20],15.1 µM and > 100 µM
same,TGI,[20],38.2 µM and > 100 µM
same,TGI,[21],> 100 µM
same,TGI,[22],19.8 µM and > 100 µM
same,TGI,[23],> 100 µM
same,TGI,[24],19.5 µM and > 100 µM
same,GI50,[25],> 100 µM
same,TGI,[25],> 100 µM
same,TGI,[59],21.3 µM and > 100 µM
same,TGI,[26],> 100 µM
same,TGI,[27],10.8 µM and > 100 µM
same,TGI,[28],19.6 µM and > 100 µM
same,TGI,[29],> 100 µM
same,TGI,[30],14.2 µM and > 100 µM
same,TGI,[31],20.4 µM and > 100 µM
same,GI50,[32],12.9 µM and > 100 µM
same,TGI,[32],25.5 µM and > 100 µM
same,TGI,[33],13.9 µM and > 100 µM
same,TGI,[35],> 100 µM
same,TGI,[36],26 µM and > 100 µM
same,GI50,[37],11.8 µM and > 100 µM
same,TGI,[37],24.2 µM and > 100 µM
same,TGI,[38],21.1 µM and > 100 µM
same,TGI,[39],15.2 µM and > 100 µM
same,GI50,[40],11.7 µM and > 100 µM
same,TGI,[40],26.3 µM and > 100 µM
same,GI50,[41],11.8 µM and > 100 µM
same,TGI,[41],25.7 µM and > 100 µM
same,TGI,[42],19.8 µM and > 100 µM
same,TGI,[43],16.1 µM and > 100 µM
same,TGI,[44],11.9 µM and > 100 µM
same,TGI,[45],17.4 µM and > 100 µM
same,TGI,[46],16.3 µM and > 100 µM
same,GI50,[47],11.2 µM and > 100 µM
same,TGI,[47],24.2 µM and > 100 µM
same,GI50,[48],11.6 µM and > 100 µM
same,TGI,[48],27.3 µM and > 100 µM
same,TGI,[50],20.1 µM and > 100 µM
same,TGI,[51],12.1 µM and > 100 µM
same,TGI,[52],> 100 µM
same,TGI,[54],> 100 µM
same,GI50,[55],12.8 µM and > 100 µM
same,TGI,[55],27.2 µM and > 100 µM
O=CNNC(=O)CSc1nc2ccc(I)cc2c(=O)n1Cc1ccccc1,TGI,[1],> 100 µM
same,TGI,[2],> 100 µM
same,TGI,[3],> 100 µM
same,TGI,[56],69.7 µM
same,TGI,[4],> 100 µM
same,TGI,[5],> 100 µM
same,TGI,[6],> 100 µM
same,TGI,[7],> 100 µM
same,TGI,[8],> 100 µM
same,TGI,[9],> 100 µM
same,TGI,[10],> 100 µM
same,TGI,[57],89.7 µM
same,TGI,[11],23.8 µM
same,TGI,[12],> 100 µM
same,TGI,[13],38.2 µM
same,TGI,[14],> 100 µM
same,TGI,[15],> 100 µM
same,TGI,[16],> 100 µM
same,TGI,[17],> 100 µM
same,TGI,[18],> 100 µM
same,TGI,[19],> 100 µM
same,TGI,[20],> 100 µM
same,TGI,[21],> 100 µM
same,TGI,[22],> 100 µM
same,TGI,[58],69.1 µM
same,TGI,[23],57.5 µM
same,TGI,[24],68.3 µM
same,TGI,[25],> 100 µM
same,TGI,[59],> 100 µM
same,TGI,[26],81.4 µM
same,TGI,[27],63.3 µM
same,TGI,[28],> 100 µM
same,TGI,[29],87.8 µM
same,TGI,[30],> 100 µM
same,TGI,[31],99 µM
same,TGI,[32],> 100 µM
same,TGI,[33],3.93 µM
same,TGI,[34],36.4 µM
same,TGI,[35],57.4 µM
same,TGI,[36],49.5 µM
same,TGI,[37],79.8 µM
same,TGI,[38],50.2 µM
same,TGI,[39],> 100 µM
same,TGI,[40],> 100 µM
same,TGI,[41],> 100 µM
same,TGI,[42],47.6 µM
same,TGI,[43],> 100 µM
same,TGI,[44],> 100 µM
same,TGI,[45],> 100 µM
same,TGI,[46],> 100 µM
same,TGI,[47],> 100 µM
same,TGI,[48],89.6 µM
same,TGI,[49],81.6 µM
same,TGI,[50],> 100 µM
same,TGI,[51],50.9 µM
same,TGI,[52],44.4 µM
same,TGI,[54],> 100 µM
same,TGI,[55],81.8 µM
